Six compounds from patent publication US20100240642A1, “1H-Indole-2-Carboxylic Acid Derivatives Useful As PPAR Modulators” (SMITHKLINE BEECHAM CORPORATION, priority 2006, published 2010) can be followed below.

Structures are written as SMILES.

The target in one experiment is T1, hPPARγ receptor (Homo sapiens, UniProt P37231).
T1 construct: expressed in transfected cells; host or cells: CV-1 (African Green Monkey kidney, ATCC CCL-70)
T1 sequence (P37231 172-475 isoform P37231-2): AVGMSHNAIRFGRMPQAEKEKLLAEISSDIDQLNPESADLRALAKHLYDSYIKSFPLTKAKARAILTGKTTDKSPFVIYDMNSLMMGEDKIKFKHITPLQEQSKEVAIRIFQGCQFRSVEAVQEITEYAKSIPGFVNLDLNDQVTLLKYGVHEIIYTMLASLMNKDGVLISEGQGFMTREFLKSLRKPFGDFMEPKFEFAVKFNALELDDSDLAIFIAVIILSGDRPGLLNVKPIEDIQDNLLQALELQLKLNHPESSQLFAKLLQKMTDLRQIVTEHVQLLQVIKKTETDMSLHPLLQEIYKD
The experiment can be described thus: PPARγ Cell-based luciferase assay. Particulars: CV-1 cells transfected with GAL4-hPPARγ LBD and UAStkLuc; at concentrations of 10^−6 M or less; read-out: agonism of the hPPARγ receptor (activation relative to full agonist rosiglitazone). A digest of the protocol:
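CV-1 cells were transiently transfected with GAL4-DBD/human PPARγ LBD (172-475) and a UAS-tk-firefly luciferase reporter. Cells were plated at 10,000/well in 5% charcoal-stripped FBS medium onto 11-point, 3-fold compound dilutions and incubated overnight at 37 °C. Luminescence was read after Steady-Glo lysis, with activation scored relative to rosiglitazone as full agonist.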

The subject of experiment [1] is Male Zucker Diabetic Fatty rats. The experiment can be described thus: In vivo evaluation: serum glucose in Zucker Diabetic Fatty rats. To be noted: 10 mg/kg once daily by oral gavage, 28 days, percent reduction from vehicle control at day 28 relative to normalization (140 mg/dL). More on the design: species or system rat. The protocol: Male Zucker Diabetic Fatty rats were lightly anesthetized with isofluorane gas and bleed by tail vein to obtain postprandial baseline concentrations for serum glucose, serum lipids and insulin. Animals were baseline matched by serum glucose and randomized into vehicle or treatment groups with compound administration by oral gavage beginning at 6.5 weeks of age. Selected compounds were administered once daily at 10 mg/kg in 25 mM N-Methyl-Glucamine with 5% w/v Solutol HS15. After 28 consecutive days of treatment, blood samples were obtained and analyzed for serum glucose. Values in Table 1 for % Glucose reduction represent a summary of the percent reduction from vehicle control animals at day 28 relative to normalization defined in this model as serum glucose levels of 140 mg/dL.

For the compound `COCCOc1cc(Cn2c(C(=O)O)c(-c3ccc(C(C)(C)C)cc3)c3ccccc32)cc(OCC2CC2)c1` [Example 2, 1-[(3-[(cyclopropylmethyl)oxy]-5-{[2-(methyloxy)ethyl]oxy}phenyl)methyl]-3-[4-(1,1-dimethylethyl)phenyl]-1H-indole-2-carboxylic acid], the Emax at hPPARγ receptor is 20 to 80%. Moreover, in experiment [1], the “% Glucose Reduction” value came to 96%.

As for `Cc1ccc(-c2ccc(C(=O)O)cc2)cc1Cn1c(C(=O)O)c(-c2ccc(C(C)(C)C)cc2)c2ccccc21` [Example 11, 1-[(4′-carboxy-4-methyl-3-biphenylyl)methyl]-3-[4-(1,1-dimethylethyl)phenyl]-1H-indole-2-carboxylic acid], the Emax at hPPARγ receptor was 20 to 80%. Also, the “% Glucose Reduction” value in experiment [1] is listed as 49%.

In the case of `COc1cc(Cn2c(C(=O)O)c(-c3ccc(C(C)(C)C)cc3)c3ccccc32)cc(-c2ccc(C(=O)O)cc2)c1` [Example 18, 1-{[4′-carboxy-5-(methyloxy)-3-biphenylyl]methyl}-3-[4-(1,1-dimethylethyl)phenyl]-1H-indole-2-carboxylic acid], at hPPARγ receptor, the Emax is 20 to 80%. Besides, the “% Glucose Reduction” value in experiment [1] amounted to 44%.

`CC(C)(C)c1ccc(-c2c(C(=O)O)n(Cc3cccc(-c4ccc(S(C)(=O)=O)cc4)c3)c3ccccc23)cc1` [Example 24, 3-[4-(1,1-dimethylethyl)phenyl]-1-{[4′-(methylsulfonyl)-3-biphenylyl]methyl}-1H-indole-2-carboxylic acid]: the Emax at hPPARγ receptor lay within 20 to 80%. The “% Glucose Reduction” value in experiment [1] is listed as 79%.

Take `CC(C)(C)c1ccc(-c2c(C(=O)O)n(Cc3cc(OCCN4CCOCC4)cc(OCC4CC4)c3)c3ccccc23)cc1` [Example 42, 1-[(3-[(cyclopropylmethyl)oxy]-5-{[2-(4-morpholinyl)ethyl]oxy}phenyl)methyl]-3-[4-(1,1-dimethylethyl)phenyl]-1H-indole-2-carboxylic acid]: the Emax on hPPARγ receptor lay in the range of 20 to 80%. In addition, the “% Glucose Reduction” value in experiment [1] was found to be 82%.

Regarding `COCCOc1cc(Cn2c(C(=O)O)c(-c3ccc(C(C)(C)C)cc3)c3ccccc32)cc(N2CCOCC2)c1` [Example 68, 3-[4-(1,1-dimethylethyl)phenyl]-1-{[3-{[2-(methyloxy)ethyl]oxy}-5-(4-morpholinyl)phenyl]methyl}-1H-indole-2-carboxylic acid], the Emax on hPPARγ receptor lay in the range of 20 to 80%. Besides, in experiment [1], the “% Glucose Reduction” value stood at 95%.
